Conditions: Liquid, Closed cell (Static) method

CCF [fluoroethane]
Conditions | vapor or sublimation pressure [kPa]
253.15 K | 216.2
258.15 K | 261.4
263.15 K | 311.9
265.65 K | 342.3
268.15 K | 372.2
270.65 K | 405.3
273.15 K | 438.1
275.15 K | 468.9
278.15 K | 517.1
281.15 K | 567.1
283.15 K | 602.9
285.65 K | 650.2
288.15 K | 699
290.65 K | 752.4
293.15 K | 808.2
295.65 K | 866
298.15 K | 924.2
300.65 K | 990.3
303.15 K | 1051.4
305.65 K | 1121.5
308.15 K | 1192.8
310.65 K | 1269.5
313.15 K | 1348.6
315.65 K | 1428.6
318.5 K | 1516.5
320.65 K | 1607.1
323.15 K | 1703.9

FCC(F)(F)F [1,1,1,2-tetrafluoroethane]
Conditions | vapor or sublimation pressure [kPa]
263.15 K | 202.6
268.15 K | 245.5
273.15 K | 294.12
283.15 K | 416.6

From the NIST ThermoML archive (doi:10.1016/j.fluid.2006.04.014)
